Test results published in publication PMC7449246, “Natural HDAC‐1/8 inhibitor baicalein exerts therapeutic effect in CBF‐AML” (Clinical and Translational Medicine, 2020).

How the values were obtained:
HDAC-8 = molecular target: T1, HDAC-8 (Homo sapiens, UniProt Q9BY41); experiment: fluorogenic deacetylase assay with purified HDAC; supported by CETSA in ME-1 cells (Tagg […] to […] °C); assay type: biochemical
T1 construct: gene HDAC8
T1 sequence (Q9BY41 1-377): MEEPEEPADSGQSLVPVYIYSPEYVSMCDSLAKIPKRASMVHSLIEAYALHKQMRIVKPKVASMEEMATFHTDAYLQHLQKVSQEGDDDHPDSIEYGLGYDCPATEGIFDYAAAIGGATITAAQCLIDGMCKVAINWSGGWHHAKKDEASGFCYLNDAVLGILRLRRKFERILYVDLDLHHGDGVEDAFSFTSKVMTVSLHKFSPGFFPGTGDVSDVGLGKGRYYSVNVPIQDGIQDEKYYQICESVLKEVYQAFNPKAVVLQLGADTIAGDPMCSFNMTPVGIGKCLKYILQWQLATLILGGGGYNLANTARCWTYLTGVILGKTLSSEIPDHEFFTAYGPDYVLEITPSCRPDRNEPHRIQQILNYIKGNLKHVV

HDAC-1 = molecular target: T2, HDAC-1 (Homo sapiens, UniProt Q13547); experiment: as above; assay type: biochemical
T2 construct: gene HDAC1
T2 sequence (Q13547 whole entry): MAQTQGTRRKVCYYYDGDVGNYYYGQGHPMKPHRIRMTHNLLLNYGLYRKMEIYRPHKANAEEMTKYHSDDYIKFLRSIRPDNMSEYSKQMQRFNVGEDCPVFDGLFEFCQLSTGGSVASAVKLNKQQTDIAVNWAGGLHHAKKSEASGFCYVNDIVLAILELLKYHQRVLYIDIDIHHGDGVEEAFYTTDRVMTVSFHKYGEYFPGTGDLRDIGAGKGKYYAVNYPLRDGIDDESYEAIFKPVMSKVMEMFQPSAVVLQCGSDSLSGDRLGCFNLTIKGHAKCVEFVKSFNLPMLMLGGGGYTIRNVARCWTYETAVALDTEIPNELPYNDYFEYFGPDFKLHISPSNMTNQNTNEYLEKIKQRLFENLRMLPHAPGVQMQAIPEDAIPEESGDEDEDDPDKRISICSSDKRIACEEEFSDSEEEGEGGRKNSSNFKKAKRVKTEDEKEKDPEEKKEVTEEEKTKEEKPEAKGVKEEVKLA

With `O=c1cc(-c2ccccc2)oc2cc(O)c(O)c(O)c12` [Baicalein] the IC50 (HDAC-8) was 3.95 µM and the IC50 (HDAC-1) was 46.7 µM.
